Patent publication US5250538A, “Indole derivatives and their use” (Novo Nordisk A/S, priority 1990, dated 1993)
Structures can show the parent of a compound that is named as a salt.

Columns and labels:
[1] = test system: 5-HT1A receptors; details: background, in words; cited from earlier work
[2] = molecular target: T1, 5-HT1B (Rattus norvegicus, UniProt P28564); assay: 5-HT1B receptor binding in vitro (3H-5-HT, 50 nM 8-OH-DPAT included)
T1 construct: from tissue
Method: (§1) Compounds of the general formula (I) were tested for binding to 5-HT receptors and compared with known ligands by the following procedure:
(§2) Rat brain tissue (as specified in the table hereinafter) was homogenized using a Polytron homogenizer. The final pellet was resuspended in 125 vol (tissue wet weight) of buffer.
(§3) In all assays incubation was carried out for 10 min at 37° C.
Labelling of the 5-HT1B receptor was complicated by the fact that the available ligand ^3 H-5-HT is nonselective.
(§4) Detailed conditions for the receptor binding assay in vitro are tabulated below.

[3] = molecular target: T2, 5-HT1A (Rattus norvegicus, UniProt P19327); assay: 5-HT1A receptor binding in vitro (3H-8-OH-DPAT, rat frontal cortex/hippocampus); details: rat brain, ligand 3H-8-OH-DPAT 2 nM, 10 min 37° C.
T2 construct: from tissue
T2 sequence (P19327 1-422): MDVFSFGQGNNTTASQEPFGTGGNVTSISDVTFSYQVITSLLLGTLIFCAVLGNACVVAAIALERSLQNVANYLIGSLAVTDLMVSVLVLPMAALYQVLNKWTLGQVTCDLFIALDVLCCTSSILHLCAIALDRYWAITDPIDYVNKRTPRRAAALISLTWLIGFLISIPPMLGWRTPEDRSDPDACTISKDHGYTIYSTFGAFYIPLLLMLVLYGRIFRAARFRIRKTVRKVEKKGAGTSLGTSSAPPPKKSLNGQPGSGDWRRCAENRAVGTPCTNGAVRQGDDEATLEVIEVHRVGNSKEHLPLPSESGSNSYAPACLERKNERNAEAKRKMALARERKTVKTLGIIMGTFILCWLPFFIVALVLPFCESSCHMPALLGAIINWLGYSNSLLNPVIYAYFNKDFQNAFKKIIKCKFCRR
Method: as §1, §2, §3, §4

[4] = test system: 5-HT1 recognition sites; details: background, Ann.Reports Med.Chem. 21 (1986), 42-43; cited from earlier work
[5] = test system: 5-HT2 receptor subtype; details: background, in words; cited from earlier work

T1 sequence (P28564 whole entry): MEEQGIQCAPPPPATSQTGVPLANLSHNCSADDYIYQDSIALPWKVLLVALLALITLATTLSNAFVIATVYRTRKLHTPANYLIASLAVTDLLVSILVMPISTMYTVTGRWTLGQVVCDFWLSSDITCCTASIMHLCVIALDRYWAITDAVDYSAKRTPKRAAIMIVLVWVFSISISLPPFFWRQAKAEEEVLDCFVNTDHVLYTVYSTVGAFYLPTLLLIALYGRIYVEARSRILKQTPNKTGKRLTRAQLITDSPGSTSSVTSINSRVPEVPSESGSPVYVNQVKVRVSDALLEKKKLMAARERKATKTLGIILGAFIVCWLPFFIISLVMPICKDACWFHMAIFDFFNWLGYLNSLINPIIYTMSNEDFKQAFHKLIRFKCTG

Row | Structure (SMILES) | IC50 [2] [nM] | IC50 [3] [nM] | further results
1 | CCCN(CCC)C1CCc2cccc(O)c2C1 (stereo not drawn) [Example 8-OH-DPAT, 8-hydroxy-2-(di-n-propylamino)tetralin] | – | – | binds with high affinity to 5-HT1A receptors [1]: high affinity
2 | COc1ccc2[nH]cc(CCNCCCCN3C(=O)CC4(CCCC4)CC3=O)c2c1 [Example 4, 1-(4-(7,9-Dioxo-8-azaspiro[4,5]decan-8-yl)butyl-1-amino)-2-(5-methoxy-3-indolyl)-ethane, oxalate] | > 1000 | 4 | –
3 | O=C1c2ccccc2C(=O)N1CCCCNCCc1c[nH]c2ccccc12 [Example 2, 1-(4-Phthalimidobutyl-1-amino)-2-(3-indolyl)-ethane, oxalate] | 148 | 375 | –
4 | COc1ccc2[nH]cc(C3=CCNCC3)c2c1 [RU 24969] | – | – | affinity for 5-HT1 recognition sites [4]: high affinity
5 | O=C1C2C3C=CC(C4C=CC43)C2C(=O)N1CCCCNCCc1c[nH]c2ccccc12 (stereo not drawn) [Example 1, 1-(4-(1,3-Dioxo-4,7-etheno-1,3,3a,4,4a,6a,7,7a-octahydro-2 H-cyclobut[f]isoindol-2-yl)butyl-1-amino)-2-(3-indolyl)-ethane, oxalate] | 480 | 26 | –
6 | O=C(c1ccc(F)cc1)C1CCN(CCn2c(=O)[nH]c3ccccc3c2=O)CC1 [ketanserin] | – | – | high affinity for the 5-HT2 receptor subtype [5]: high affinity

Second part, led by results:

Row | IC50 [2] [nM] | IC50 [3] [nM] | Structure (SMILES) | further results
7 | > 1000 | – | O=C1c2ccccc2S(=O)(=O)N1CCCCN1CCN(c2ncccn2)CC1 [Ipsapirone, reference compound] | –
8 | > 1000 | 2.5 | COc1ccc2[nH]cc(CCNCCCCN3C(=O)C4C5C=CC(C6C=CC65)C4C3=O)c2c1 (stereo not drawn) [Example 5, 1-(4-(1,3-Dioxo-4,7-etheno-1,3,3a,4,4a,6a,7,7a-octa-hydro-2 H-cyclobut(f]isoindol-2-yl)butyl-1-amino)-2(5-methoxy-3-indolyl)-ethand, oxalate] | –
